Reference: patent publication EP4781986A1, “PHARMACEUTICAL COMPOSITION HAVING IMPROVED PHARMACOKINETIC PROPERTIES” (Sichuan Purity Pharmaceutical Co., Ltd., priority 2023, dated 2025)
Read-outs that look alike come from different tables or passages of the source.

Key:
[1] = target: T1, CGRP receptor complex (Homo sapiens, UniProt O60894+Q16602); assay: determination of cell functional antagonism - cAMP determination; assay type: cell-based; settings: inhibition of CGRP-stimulated cAMP formation in SK-N-MC cells
T1 construct: SK-N-MC (neuroepithelioma cells) from National Science and Technology Infrastructure; host or cells: SK-N-MC
Method: A CGRP receptor complex was coupled with Gs in G protein, the combination of CGRP and CGRP receptor complex led to Gs activation, and cAMP (3',5'-cyclic adenosine monophosphate) was produced.
The ability of the compound of the present invention to inhibit CGRP-stimulated cAMP formation in SK-N-MC cells was determined.
SK-N-MC (neuroepithelioma cells) from National Science and Technology Infrastructure - Biomedical Materials and Cell Resources.
The SK-N-MC cells were resuscitated and cultured in advance, and a cell confluence degree should be 70%-80% before use.
4.2 A sample dilution, a tested compound and α-CGRP (human) were prepared.
The SK-N-MC cells were digested, centrifuged, then resuspended with the sample dilution, and inoculated into a 384-well plate. Each well was added with the α-CGRP (human) and the tested compound respectively, and blown and mixed evenly. The well plate was adhered with a sealing film, and placed on an enzyme-labeled incubator to incubate at 25°C.
4.4 cAMP determination: carried out according to LANCE Ultra cAMP Kit specification EucAMP tracer and ULight-anti-cAMP working solutions were prepared in the dark, respectively added into the well plate, and blown and mixed evenly. The well plate was adhered with a sealing film, and placed on an enzyme-labeled incubator to incubate at 25°C.
4.5 A luminescence value was read by a chemiluminescent module of an automatic enzyme-labeled instrument.

[2] = stability test in liver microsomes (rat); assay type: in vitro ADME; settings: for % remaining (60 min): Rat liver microsomes
Method: (§1) The stability of the compound of the present invention in liver microsomes of rat, monkey and human was determined. Tested compounds of the present invention were the compounds in Examples 6 and 8 , and a control drug was Zavegepant.
(§2) 3.2 An appropriate amount of liver microsome solution was transferred into a 1 mL 96-deep-well plate, added with a tested drug liquid (or a probe substrate solution), and pre-incubated in a thermal mixer at 37°C for 5 minutes. Two parts of mixed solutions were taken out from the system and added with 1×PBS to replace NADPH, and the mixed solutions were taken out at 0 and 60 minutes respectively, and added with methanol (containing an internal standard) to terminate the reaction. In the remaining mixed system, each well was added with NADPH to start the reaction. In the tested substance group, mixed solutions were taken out from the system at 0, 5, 15, 30, 45 and 60 minutes, and in the control group, mixed solutions were taken out from the system at 0, 30 and 60 minutes, and the mixed solutions were added methanol (containing an internal standard) to terminate the reaction. All samples of the terminated reaction were mixed evenly and centrifuged in a centrifuge at 3800 rpm for 15 minutes, and the supernatant was taken for LC-MS/MS analysis.
(§3) A peak area was determined by an extracted ion chromatogram. A slope value k was determined by linear regression of a remaining percentage of a parent drug relative to a natural logarithm of an incubation time curve. According to the slope, in-vitro half-life periods (t1/2) were respectively calculated, and in-vitro intrinsic clearance rates (CLint, represented by µL/min/mg protein) were calculated. Calculation formulas were as follows: t1/2 = ln2/k = 0.693/k; and CLint = 0.693/t1/2 /liver microsome protein concentration [formula]

[3] = stability test in liver microsomes (monkey); assay type: in vitro ADME
Method: as §1, §2, §3

[4] = stability test in liver microsomes (human); assay type: in vitro ADME; settings: for % remaining (60 min): Human liver microsomes
Method: as §1, §2, §3

[5] = tested on: Plasma of SD rat; assay: plasma protein binding rate test, equilibrium dialysis (rat); assay type: in vitro ADME; settings: 1 µM, 37°C, 6 hours
Method: (§4) Protein binding rates of the compound of the present invention in plasma of rat, monkey and human were determined by an equilibrium dialysis method. Tested compounds of the present invention were the compounds in Examples 6 and 8.
(§5) 3.1 A dry dialysis membrane was rinsed with ultrapure water for 2-3 times, and then soaked in a phosphate buffer for 1 hour for later use. Polytetrafluoroethylene module was soaked in 20% ethanol for 30 minutes, and then surface moisture was dried with dust-free paper for later use. The pretreated dialysis membrane was assembled into a dialysis plate according to the product specification, and one side (receptor compartment) of an osmotic membrane in each dialysis well was added with 100 µL of receptor fluid (100 mM phosphate buffer solution plus 0.002% Tween 80).
(§6) 3.2 The plasma was put into a centrifuge tube, a working solution of a tested substance was added into the plasma, wherein a final concentration was 1 µM, and the mixture was turned upside down and mixed evenly (this step was carried out in ice bath). 20 µL of drug-containing plasma each was taken, and was respectively transferred to a 96-well sample plate according to two parts in parallel, and stored in a refrigerator at -20°C as a T0 sample.
(§7) 3.3 Another 100 µL of the above drug-containing plasma was transferred to the other side (sample compartment) of the membrane in the dialysis device according to two parts in parallel, and incubated under vibration at a constant temperature of 37°C for 6 hours. […]
(§8) A plasma protein binding rate and a recovery rate of the compound in plasma were calculated by the following formulas: dissociation percentage (%) = CB /CA; [formula] plasma protein binding rate (fb%) = 1−dissociation percentage (%); [formula] recovery rate (%) = (CB+CA)/CT0 [formula] wherein CB was a concentration of the compound in the receptor fluid after equilibrium dialysis; CA was a concentration of the compound in the drug-containing plasma after equilibrium dialysis; and CT0 was an initial concentration of the compound in plasma.

[6] = tested on: Plasma of cynomolgus monkey; assay: plasma protein binding rate test, equilibrium dialysis (monkey); assay type: in vitro ADME; settings: 1 µM, 37°C, 6 hours
Method: as §4, §5, §6, §7, §8

[7] = tested on: Plasma of human; assay: plasma protein binding rate test, equilibrium dialysis (human); assay type: in vitro ADME; settings: 1 µM, 37°C, 6 hours
Method: as §4, §5, §6, §7, §8

[8] = PK properties in SD rats with or without 0.2% alkyl glycoside (DDM); assay type: in vivo; settings: for Tmax: Sprague-Dawley, rat, in vivo, inhaled or intranasal
Excerpt: During preparation of a test sample in the Test Example 5, a drug solution group with 0.2% dodecyl-β-D-maltoside (DDM) was also established and prepared in parallel, so as to compare and observe changes of PK properties in rats administered with the drug solution group with 0.2% dodecyl-β-D-maltoside (DDM) and the drug solution group without dodecyl-β-D-maltoside (DDM).

[9] = PK properties in SD rats with different concentrations of alkyl glycoside (0.05% and 5% DDM); assay type: in vivo; settings: intranasal, 5% DDM vs without DDM
Excerpt: During preparation of a test sample in the Test Example 7, drug solution groups with 0.05% and 5% dodecyl-β-D-maltosides (DDM) were established and prepared in parallel, so as to compare and observe changes of PK properties in rats administered with the drug solution groups with two different concentrations of dodecyl-β-D-maltosides (DDM).

[10] = oral administration with alkyl glucoside, according to CN202180077330.9; cited from earlier work

T1 sequence (Q16602 23-461): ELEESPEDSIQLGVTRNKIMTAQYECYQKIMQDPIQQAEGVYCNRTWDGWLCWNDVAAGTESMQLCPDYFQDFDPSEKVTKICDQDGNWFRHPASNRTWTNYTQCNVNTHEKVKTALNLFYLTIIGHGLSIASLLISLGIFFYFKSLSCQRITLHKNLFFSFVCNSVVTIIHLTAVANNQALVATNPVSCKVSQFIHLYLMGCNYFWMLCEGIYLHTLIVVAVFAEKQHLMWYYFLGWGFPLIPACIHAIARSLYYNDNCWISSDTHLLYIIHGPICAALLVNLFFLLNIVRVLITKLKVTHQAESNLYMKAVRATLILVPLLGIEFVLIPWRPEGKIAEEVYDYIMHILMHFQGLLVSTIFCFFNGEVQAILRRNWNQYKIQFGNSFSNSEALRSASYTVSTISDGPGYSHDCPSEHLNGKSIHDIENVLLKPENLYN
T1 sequence (O60894 27-148): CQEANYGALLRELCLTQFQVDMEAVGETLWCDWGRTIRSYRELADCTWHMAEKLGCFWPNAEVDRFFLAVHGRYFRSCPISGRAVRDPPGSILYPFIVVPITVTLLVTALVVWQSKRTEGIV

Compound `Cc1cc(C[C@@H](NC(=O)N2CCC(c3cc4c([nH]c3=O)CCCS4)CC2)C(=O)N2CCN(C3CCN(C)CC3)CC2)cc2cn[nH]c12` [Example 12, (R)-N-(3-(7-methyl-1H-indazole-5-yl)-1-(4-(1-methylpiperidine-4-yl)piperazine-1-yl)-1-oxopropan-2-yl)-4-(6-oxo-3,4,5,6-tetrahydro-2H-thiopyrano[3,2-b]pyridine-7-yl)piperidine-1-formamide] has an IC50 [1] of 16.9 nM.
`[2H]C1([2H])SCc2cc(C3CCN(C(=O)N[C@H](Cc4cc(C)c5[nH]ncc5c4)C(=O)N4CCN(C5CCN(C)CC5)CC4)CC3)c(=O)[nH]c21` [Example 14, (R)-N-(3-(7-methyl-1H-indazole-5-yl)-1-(4-(1-methylpiperidine-4-yl)piperazine-1-yl)-1-oxopropan-2-yl)-4-(2-oxo-1,2,5,7-tetrahydrothieno[3,4-b]pyridine-3-yl-7,7-d2)piperidine-1-formamide] showed an IC50 [1] of 6.85 nM.
With `Cc1cc(C[C@@H](NC(=O)N2CCC(c3cc4c([nH]c3=O)CCSC4)CC2)C(=O)N2CCN(C3CCN(C)CC3)CC2)cc2cn[nH]c12` [Example 15, (R)-N-(3-(7-methyl-1H-indazole-5-yl)-1-(4-(1-methylpiperidine-4-yl)piperazine-1-yl)-1-oxopropan-2-yl)-4-(2-oxo-1,5,7,8-tetrahydro-2H-thiopyrano[4,3-b]pyridine-3-yl)piperidine-1-formamide] the IC50 [1] was 10.1 nM.
Work on `Cc1cc(C[C@@H](NC(=O)C2CCN(c3cc4c([nH]c3=O)SCCC4)CC2)C(=O)N2CCN(C3CCN(C)CC3)CC2)cc2cn[nH]c12` [Example 21, (R)-N-(3-(7-methyl-1H-indazole-5-yl)-1-(4-(1-methylpiperidine-4-yl)piperazine-1-yl)-1-oxopropan-2-yl)-1-(7-oxo-3,4,7,8-tetrahydro-2H-thiopyrano[2,3-b]pyridine-6-yl)piperidine-4-formamide] yielded an IC50 [1] of 590 nM.
With `Cc1cc(C[C@@H](NC(=O)N2CCC(c3cc4c([nH]c3=O)SCCC4)CC2)C(=O)N2CCC(N3CCN(C)CC3)CC2)cc2cn[nH]c12` [Example 25, (R)-N-(3-(7-methyl-1H-indazole-5-yl)-1-(4-(4-methylpiperazine-1-yl)piperidine-1-yl)-1-oxopropan-2-yl)-4-(7-oxo-3,4,7,8-tetrahydro-2H-thiopyrano[2,3-b]pyridine-6-yl)piperidine-1-formamide] the IC50 [1] was 0.79 nM.
With `[2H]C([2H])([2H])N1CCC(N2CCN(C(=O)[C@@H](Cc3cc(C)c4[nH]ncc4c3)NC(=O)N3CCC(c4cc5c([nH]c4=O)SCC5)CC3)CC2)CC1` [Example 29, (R)-N-(3-(7-methyl-1H-indazole-5-yl)-1-(4-(1-(methyl-d3)piperidine-4-yl)piperazine-1-yl)-1-oxopropan-2-yl)-4-(6-oxo-2,3,6,7-tetrahydrothieno[2,3-b]pyridine-5-yl)piperidine-1-formamide] the half-life at 1 µM ([2]; Rat liver microsomes 0.5 mg/mL, 1.0 µM) was greater than 120 min, the “% remaining (60 min)” value [2] was 105% and the microsomal CLint at 1 µM ([3]; Monkey liver microsomes) was 1.6 µL/min/mg. For the same compound, the half-life at 1 µM ([3]; Monkey liver microsomes 0.5 mg/mL, 1.0 µM) was greater than 120 min, the “% remaining (60 min)” value ([3]; Monkey liver microsomes) was 98.9% and the half-life at 1 µM ([4]; Human liver microsomes 0.5 mg/mL, 1.0 µM) was greater than 120 min. The “% remaining (60 min)” value [4] was 115%, the “fb (%)” value [5] was 64.3% and the “fb (%)” value [6] was 56.1%. The “fb (%)” value [7] was 50.2%.
Compound `Cc1cc(C[C@@H](NC(=O)N2CCC(c3cc4c([nH]c3=O)SCC4)CC2)C(=O)N2C3CCC2CC(N2CCCCC2)C3)cc2cn[nH]c12` (stereo partly drawn) [Example 34, N-((2R)-3-(7-methyl-1H-indazole-5-yl)-1-oxo-1-(3-(piperidine-1-yl)-8-azabicyclo[3.2.1]octane-8-yl)propan-2-yl)-4-(6-oxo-2,3,6,7-tetrahydrothieno[2,3-b]pyridine-5-yl)piperidine-1-formamide] has an IC50 [1] of 0.2 nM.
For `Cc1cc(C[C@@H](NC(=O)N2CCC(c3cc4c([nH]c3=O)C3CCC4C3)CC2)C(=O)N2CCN(C3CCN(C)CC3)CC2)cc2cn[nH]c12` (stereo partly drawn) [Example 45, N-((R)-3-(7-methyl-1H-indazole-5-yl)-1-(4-(1-methylpiperidine-4-yl)piperazine-1-yl)-1-oxopropan-2-yl)-4-(2-oxo-1,2,5,6,7,8-hexahydro-5,8-methanoquinoline-3-yl)piperidine-1-formamide], the IC50 [1] was 26 nM.
With `Cc1cc(C[C@@H](NC(=O)N2CCC(c3cc4c([nH]c3=O)SCC=C4)CC2)C(=O)N2CCN(C3CCN(C)CC3)CC2)cc2cn[nH]c12` [Example 48, (R)-N-(3-(7-methyl-1H-indazole-5-yl)-1-(4-(1-methylpiperidine-4-yl)piperazine-1-yl)-1-oxopropan-2-yl)-4-(7-oxo-7,8-dihydro-2H-thiopyrano[2,3-b]pyridine-6-yl)piperidine-1-formamide] the IC50 [1] was 0.15 nM.
For `Cc1cc(C[C@@H](NC(=O)N2CCC(c3cc4ccccc4[nH]c3=O)CC2)C(=O)N2CCN(C3CCN(C)CC3)CC2)cc2cn[nH]c12` [Zavegepant, zavegepant, reference compound], the “% remaining (60 min)” value [2] was 95.5%, the “% remaining (60 min)” value ([3]; Monkey liver microsomes) was 72.1% and the “% remaining (60 min)” value [4] was 57.5%. For the same compound, the Tmax ([8]; 0.2% DDM) was 12.5 min, the Tmax ([8]; not added with DDM (0%DDM)) was 15 min and the “Tmax(DDM 0.2%)/ Tmax(DDM 0%)” value ([8]; intranasal, 0.2% dodecyl-β-D-maltoside (DDM) vs without DDM) was 83.6%. The “Tmax(DDM 5%)/ Tmax(DDM 0%)” value [9] was 50%, the AUC [10] was “no obvious changes” and the Cmax [10] was “no obvious changes”. For the same compound, the Tmax [10] was “prolonged to some extent”.
